According to PMC4349960, “[^18F]FE@SUPPY: a suitable PET tracer for the adenosine A3 receptor? An in vivo study in rodents” (European Journal of Nuclear Medicine and Molecular Imaging, 2015):
Values joined by “and” are separate entries in the source; they are usually repeats but may differ in a detail not shown here. Identical values can stand only once.

Assays:
[1] = Ex vivo stability/metabolism in rat plasma and brain after pretreatment; set-up: species or system rats; conditions: for Brain to blood uptake ratio / %ID/g at 60 min, Blood (plasma) / %ID/g at 60 min, Brain / Unchanged [^18F]FE@SUPPY at 60 min, Blood (plasma) / Unchanged [^18F]FE@SUPPY at 60 min, Brain: rats
Method: To determine the influence of the four treatments (vehicle, MRS1523, FE@SUPPY, TQD) on uptake of [^18F]FE@SUPPY, stability was assessed in plasma and brain 60 min after tracer injection. Final blood samples (3 mL) were collected in heparin-buffered tubes, rat brains were washed with ice-cold water and homogenized in 0.9 % aqueous NaCl solution (1 mL) using an IKA T10 basic Ultra-turrax (IKA Laboratory Equipment, Staufen, Germany). […] Sample clean-up was performed by vortexing plasma with the equivalent amount of methanol/acetonitrile (9:1) for 1 min and by subsequent ultracentrifugation (10,000 rpm, 5 min) to remove precipitated proteins. The supernatants obtained were analysed by radio-HPLC (Agilent, Boeblingen, Germany) equipped with a series 1100 autosampler, a series 1200 quaternary pump, a series 1200 diode array detector and a lead-shielded BGO radiodetector. A Chromolith® Performance RP-18e (100 × 4.6 mm, 5 μm) column with a Chromolith® Performance RP-18e (4 x4 mm, 5 μm) precolumn was eluted at a flow rate of 2 mL/min using a mobile phase consisting of 60 % acetonitrile and 40 % water/acetic acid 97.5:2.5 and 32 mM ammonium acetate, pH 3.5. UV detection was performed at a wavelength of 254 nm. The retention time of [^18F]FE@SUPPY was 4.6 – 5.9 min (UV detection and radiodetection).

[2] = set-up: method as in PMID 18158944; conditions: cited from earlier work
P-gp = assay: Small-animal PET in rats: efflux (P-gp) inhibition; format: in vivo
Source text: A microPET Focus220 scanner (Siemens, Medical Solutions) was used for the experiments. […] The resolution of the reconstructed images (filtered back projection) was 1.3 mm (full-width at half-maximum) in the central field of view and remained under 2 mm within the central 5 cm diameter field of view [15]. For PET imaging two groups of animals (rats and xenografted mice) were investigated. Rats were divided into four groups.
Anaesthetized animals were positioned in the imaging chamber of the microPET scanner, which was kept at 38 °C throughout the experiment. […]
For all PET scans (rats and xenografted mice), list mode data were acquired with an energy window of 350 – 750 keV (rats) or 250 – 750 keV (mice) and a 6-ns timing window. Before each PET scan, a transmission scan using a ^57Co point source was recorded over 10 min. […] A calibration factor for converting units of microPET images into absolute radioactivity concentration units was first generated by imaging a phantom filled with a known concentration of [^18F]FDG.
Rat brains were manually outlined on multiple planes of the PET summation images using the image analysis software PMOD 3.1 (Pmod Ltd, Zürich, Switzerland) or Amide [18]. […] To facilitate comparison of TACs of different animals, radioactivity concentrations were normalized to dose and weight and expressed as standardized uptake value (SUV, %ID/cm^3 or %ID/g). […]

[3] = pretreatment unlabelled FE@SUPPY

## CCSC(=O)c1c(CC)nc(-c2ccccc2)c(C(=O)OCC[18F])c1CC [[^18F]FE@SUPPY, 5-(2-[^18F]fluoroethyl)-2,4-diethyl-3-(ethylsulfanylcarbonyl)-6-phenylpyridine-5-carboxylate]
[1]; 60 min after tracer injection
  Ex vivo metabolites in rats (where found): Blood and brain
[1]; baseline
  Brain to blood uptake ratio: 5.2
[1]; pretreatment DMSO
  %ID/g at 60 min, Blood (plasma): 0.022 ± 0.003 %ID/g and 0.0216 ± 0.003 %ID/g
  %ID/g at 60 min, Brain: 0.1132 ± 0.0002 %ID/g
  Unchanged [^18F]FE@SUPPY at 60 min, Blood (plasma): 25.8 ± 5.3% and 25.81 ± 5.3%
  Unchanged [^18F]FE@SUPPY at 60 min, Brain: 43.7 ± 9.5%
[1]; pretreatment FE@SUPPY
  Brain to blood uptake ratio: 7.9
[1]; pretreatment MRS1523
  %ID/g at 60 min, Blood (plasma): 0.0145 ± 0.002 %ID/g
  %ID/g at 60 min, Brain: 0.0918 ± 0.0001 %ID/g
  Unchanged [^18F]FE@SUPPY at 60 min, Blood (plasma): 26.5 ± 1.4% and 26.54 ± 1.4%
  Unchanged [^18F]FE@SUPPY at 60 min, Brain: 37.8 ± 4.3% and 37.75 ± 4.3%
[1]; pretreatment TQD
  %ID/g at 60 min, Blood (plasma): 0.0214 ± 0.004 %ID/g
  %ID/g at 60 min, Brain: 0.1507 ± 0.0005 %ID/g
  Unchanged [^18F]FE@SUPPY at 60 min, Blood (plasma): 39.9 ± 4.7% and 39.87 ± 4.7%
  Unchanged [^18F]FE@SUPPY at 60 min, Brain: 55.2 ± 7.0% and 55.21 ± 7.0%
[1]; [3]
  %ID/g at 60 min, Blood (plasma): 0.0160 ± 0.002 %ID/g
  %ID/g at 60 min, Brain: 0.1273 ± 0.0000 %ID/g
  Unchanged [^18F]FE@SUPPY at 60 min, Blood (plasma): 32.4 ± 5.6%
  Unchanged [^18F]FE@SUPPY at 60 min, Brain: 49.6 ± 9.4% and 49.64 ± 9.4%
[2]
  Biodistribution in rats: Followed mainly A3 pattern (except testes) [3]
  Bone uptake in rats: None [3]
[2]; rats
  Brain to blood uptake ratio in biodistribution experiments: up to 5.4
  brain-to-blood ratios over time: increase over time
P-gp; TQD-treated group (15 mg/kg, 60 min before tracer)
  peak brain activity: 1.53 ± 0.01 SUV
P-gp; untreated group
  peak brain activity: 1.56 ± 0.22 SUV
